Measured values: patent US10766869B2, “Triazoles for the treatment of demyelinating dieases” (Vertex Pharmaceuticals Incorporated, priority 2015, dated 2020)

System: primary rat mixed cortical cells
Test: In vitro myelination assay (MBP positive myelin strands, fold myelin pixels above background)
Format: cell-based
Conditions: Rattus norvegicus, relative to baseline of no added compound, read-out: Fold myelin pixels above background; for fold induction at 1 µM: 1.0 μM compound; for fold induction at 10 µM: 10.0 μM compound
Method in brief: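 Compounds at 1.0 and 10.0 μM were incubated 14 days with dissociated P1 rat cortical cells, which were then fixed and immunostained for MBP. Myelination was scored as fold MBP myelin pixels per well over the no-compound baseline.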

| SMILES | fold induction at 1 µM | fold induction at 10 µM |
| --- | --- | --- |
| Cc1cc(Nc2ncn(-c3cnccn3)n2)cc(C2(C)CNC(=O)O2)c1 (stereo not drawn) [Compound 741, 5-methyl-5-[3-methyl-5-[(1-pyrazin-2-yl-1,2,4-triazol-3-yl)amino]phenyl]oxazolidin-2-one] | 10 to 100 | 1 to 10 |
| Cc1cc(Nc2ncn(-c3cc(F)cc(F)c3)n2)cc(N2CC(N3CC4CC(C3)O4)C2)c1 [Compound 742, 1-(3,5-difluorophenyl)-N-[3-methyl-5-[3-(6-oxa-3-azabicyclo[3.1.1]heptan-3-yl)azetidin-1-yl]phenyl]-1,2,4-triazol-3-amine] | 10 to 100 | ≤ 1 |
| Cc1cc(Nc2ncn(-c3cc(F)cc(F)c3)n2)c(F)c(N2CC3(COC3)C2)c1 [Compound 743, 1-(3,5-difluorophenyl)-N-[2-fluoro-5-methyl-3-(2-oxa-6-azaspiro[3.3]heptan-6-yl)phenyl]-1,2,4-triazol-3-amine] | 1 to 10 | 10 to 100 |
| Cc1cc(Nc2ncn(-c3cc(F)cc(F)c3)n2)nc(C2CCNCC2)c1 [Compound 744, N-[1-(3,5-difluorophenyl)-1,2,4-triazol-3-yl]-4-methyl-6-(4-piperidyl)pyridin-2-amine] | 1 to 10 | ≤ 1 |
| Cc1cc(Nc2ncn(-c3cc(F)cc(F)c3)n2)cc(N2CCC(N3CC(F)(F)C3)CC2)c1 [Compound 745, N-[3-[4-(3,3-difluoroazetidin-1-yl)-1-piperidyl]-5-methyl-phenyl]-1-(3,5-difluorophenyl)-1,2,4-triazol-3-amine] | 10 to 100 | ≤ 1 |
| Cc1cc(Nc2ncn(-c3cc(F)cc(F)c3)n2)cc(N2CC(N3C4CCC3COC4)C2)c1 [Compound 746, 1-(3,5-difluorophenyl)-N-[3-methyl-5-[3-(3-oxa-8-azabicyclo[3.2.1]octan-8-yl)azetidin-1-yl]phenyl]-1,2,4-triazol-3-amine] | 10 to 100 | 10 to 100 |
| Cc1cc(Nc2ncn(-c3cc(F)cc(F)c3)n2)cc(N2CCN(CCCN(C)C)CC2)c1 [Compound 747, 1-(3,5-difluorophenyl)-N-[3-[4-[3-(dimethylamino)propyl]piperazin-1-yl]-5-methyl-phenyl]-1,2,4-triazol-3-amine] | ≤ 1 | ≤ 1 |
| Cc1cc(Nc2ncn(-c3ccc(Cl)c(F)c3)n2)nc(N2CCN(C3COC3)CC2)c1 [Compound 749, N-[1-(4-chloro-3-fluoro-phenyl)-1,2,4-triazol-3-yl]-4-methyl-6-[4-(oxetan-3-yl)piperazin-1-yl]pyridin-2-amine] | 10 to 100 | 10 to 100 |
| Cc1cc(Nc2ncn(-c3cc(F)cc(F)c3)n2)cc(O[C@H]2C[C@H](N3CCOCC3)C2)c1 [Compound 752, 1-(3,5-difluorophenyl)-N-[3-methyl-5-(3-morpholinocyclobutoxy)phenyl]-1,2,4-triazol-3-amine] | 10 to 100 | 1 to 10 |
| Clc1cc(Nc2ncn(-c3cnccn3)n2)cc(N2CC(N3CCOCC3)C2)c1 [Compound 753, N-[3-chloro-5-(3-morpholinoazetidin-1-yl)phenyl]-1-pyrazin-2-yl-1,2,4-triazol-3-amine] | 10 to 100 | 100 to 1000 |
| COc1cc(Nc2ncn(-c3cc(F)cc(C(F)(F)F)c3)n2)cc(N2CCN(C3COC3)CC2)c1 [Compound 754, 1-[3-fluoro-5-(trifluoromethyl)phenyl]-N-[3-methoxy-5-[4-(oxetan-3-yl)piperazin-1-yl]phenyl]-1,2,4-triazol-3-amine] | 10 to 100 | 1 to 10 |
| Cc1cc(Nc2ncn(-c3cc(F)cc(F)c3)n2)nc(N2CCCC(O)C2)c1 (stereo not drawn) [Compound 755, 1-[6-[[1-(3,5-difluorophenyl)-1,2,4-triazol-3-yl]amino]-4-methyl-2-pyridyl]piperidin-3-ol] | 1 to 10 | 10 to 100 |
